# Data taken from patent US12377110B2, “Fospropofol methods and compositions” (Epalex Corporation, priority 2019, dated 2025).
# How the values were obtained:
# [1] = Study A16 Part 1: PK of single ascending oral doses of fospropofol disodium (200 to 2000 mg), fasted healthy adults; format: in vivo, human; details: for AUC(0-inf) / Cmax / Tmax / AUC(0-t) / half-life: both sexes, human, plasma
# Description: Part 1 of Study A16 was a double-blind, randomized, placebo-controlled study to investigate the safety-tolerability and PK of oral administration of single ascending doses of fospropofol disodium to healthy adult male and female volunteers.
# Subjects were healthy adults (age 18-55 years inclusive, BMI 18-29.9 kg/m^2). Separate cohorts of 12 subjects each were randomized to receive fospropofol disodium at doses of 200, 400, 800, 1000, 1200, 1600, or 2000 mg (n=10 per cohort) or matching placebo (n=2 per cohort).
# Subjects were admitted to the clinical unit for an overnight fast (Day −1), administered study drug on Day 1, and remained in the clinical unit until Day 2.
# Fospropofol disodium was formulated as powder in an HPMC capsule, each capsule containing 200 mg of fospropofol disodium (weight adjusted for water content). Placebo was administered as an appropriate number of matching capsules.
# Based on PK results from the early cohorts, sampling times were optimized beginning with Cohort 3 (800 mg) to preclose, 5, 10, 15, 20, 25, 30, 37, and 45, minutes and 1, 2, 4, 6, and 9 hours after closing.
# [2] = Study A16 Part 2: PK of a single dose of 1200 mg fospropofol disodium following a high-fat meal; format: in vivo, human
# Description: Part 2 of Study A16 was a double-blind, placebo-controlled, single-close pilot study to investigate the PK, safety, and tolerability of 1200 mg of fospropofol disodium administered to healthy adult men and women following a high-fat meal.
# Subjects were healthy adults (age 18-55 years inclusive, BMI 18-29.9 kg/m^2). A separate cohort of 15 subjects was randomly assigned to receive a single oral dose of either fospropofol disodium (n=12) or matching placebo (n=3) within 30 minutes (±1 minute) after the start of a standardized high-fat meal.
# Subjects were admitted to the clinical unit for an overnight fast (Day −1), administered study drug on Day 1 within 30 minutes of the start a standardized high-fat meal, and remained in the clinical unit until Day 2.
# Fospropofol disodium was formulated as powder in 6 HPMC capsules, each capsule containing 200 mg of fospropofol disodium (weight adjusted for water content). Placebo was administered as 6 matching capsules.
# [3] = Study No. 15-4 toxicokinetics of fospropofol and propofol in plasma; format: in vivo, Beagle dogs; details: for Propofol AUC0-6hr increase after 14 days compared with Day 1 / Propofol Cmax increase after 14 days compared with Day 1: 160-mg/kg
# Description: The purpose of Study No. 15-4 (GLP) was to determine the potential toxicity of fospropofol in Beagle dogs when administered once daily by oral gavage for 14 days. […] Because the treatment-related clinical observations (consistent with the expected transient sedative actions of fospropofol) and effects on hematology and clinical chemistry parameters were considered nonadverse, the NOAEL was determined to be 160 mg/kg/day (3200 mg/m^2/day).
# [4] = 200, 400, 800, and 1000 mg cohorts
# [5] = oral fospropofol disodium 200 mg, mean
# [6] = oral fospropofol disodium 400 mg, mean
# [7] = oral fospropofol disodium 800 mg, mean
# [8] = oral fospropofol disodium 1000 mg, mean, n = 9
# [9] = oral fospropofol disodium 1600 mg, mean
# [10] = oral fospropofol disodium 2000 mg, mean
structure (smiles),measurement,setting,value
"CC(C)c1cccc(C(C)C)c1O [propofol, 2,6-diisopropylphenol]",Dose proportionality of propofol AUC0-2h and Cmax,[1]; 200 mg to 2000 mg,close proportional
same,Dose proportionality of propofol AUC0-T and AUC0-∞,[1]; 200 mg to 2000 mg,slightly greater than close-proportional
same,Highest observed propofol Cmax relative to the mean Cmax of the cohort,[1]; [4],greater than 2 times
same,Highest observed propofol Cmax: standard deviations above the cohort mean,[1]; [4],greater than 2 standard deviations
same,Dose proportionality of propofol exposure (both Cmax and AUC),"[1]; 200 to 2000 mg, preliminary PK data",approximately close proportional
same,Highest observed propofol Cmax relative to mean Cmax,[1]; 800-mg cohort,approximately 3.7 fold
same,AUC(0-inf),"[1]; oral, 200 mg, Propofol AUC0-inf (arithmetic mean, n=10), after a single 200-mg capsule",118 ng·h/mL
same,AUC(0-inf),"[1]; oral, 200 mg, Propofol AUC0-inf (geometric mean, n=10), after a single 200-mg capsule",112 ng·h/mL
same,Cmax,"[1]; oral, 200 mg, Propofol Cmax (arithmetic mean, n=10), after a single 200-mg capsule",69.4 ng/mL
same,Cmax,"[1]; oral, 200 mg, Propofol Cmax (geometric mean, n=10), after a single 200-mg capsule",61.7 ng/mL
same,Tmax,"[1]; oral, 200 mg, Propofol median Tmax, 200-mg dose",30 min
same,Cmax,"[1]; oral, 800 mg, Highest observed propofol Cmax, 800-mg cohort",1350 ng/mL
same,Cmax,"[1]; oral, 800 mg, Mean propofol Cmax, 800 mg cohort",362 ng/mL
same,AUC(0-inf),"[1]; oral, 800 mg, Propofol AUC0-inf (arithmetic mean, n=10), single dose of 800 mg (four 200 mg capsules)",559 ng·h/mL
same,Cmax,"[1]; oral, 800 mg, Propofol Cmax (arithmetic mean, n=10), single dose of 800 mg (four 200 mg capsules)",362 ng/mL
same,Tmax,"[1]; oral, 1200 mg, Propofol Tmax (median), fasting conditions",37 min
same,Tmax,"[1]; oral, 2000 mg, Propofol median Tmax, doses of 1600 or 2000 mg",45 min
same,AUC(0-inf),"[1]; po, 200 mg, Propofol AUC0-∞, oral fospropofol disodium 200 mg, mean",118 ng·h/mL
same,Cmax,"[1]; po, 200 mg, Propofol Cmax Maximum, oral fospropofol disodium 200 mg",191 ng/mL
same,Cmax,"[1]; po, 200 mg, Propofol Cmax Mean (SD), oral fospropofol disodium 200 mg",69 ng/mL
same,Cmax,"[1]; po, 200 mg, Propofol Cmax Minimum, oral fospropofol disodium 200 mg",35.1 ng/mL
same,Cmax,"[1]; po, 200 mg, Propofol Cmax, oral fospropofol disodium 200 mg, mean",69 ng/mL
same,Tmax,"[1]; po, 200 mg, Propofol Tmax, oral fospropofol disodium 200 mg, median",30 min
same,AUC(0-inf),"[1]; po, 400 mg, Propofol AUC0-∞, oral fospropofol disodium 400 mg, mean",298 ng·h/mL
same,Cmax,"[1]; po, 400 mg, Propofol Cmax Maximum, oral fospropofol disodium 400 mg",499 ng/mL
same,Cmax,"[1]; po, 400 mg, Propofol Cmax Mean (SD), oral fospropofol disodium 400 mg",201 ng/mL
same,Cmax,"[1]; po, 400 mg, Propofol Cmax Minimum, oral fospropofol disodium 400 mg",33.5 ng/mL
same,Cmax,"[1]; po, 400 mg, Propofol Cmax, oral fospropofol disodium 400 mg, mean",201 ng/mL
same,Tmax,"[1]; po, 400 mg, Propofol Tmax, oral fospropofol disodium 400 mg, median",30 min
same,AUC(0-inf),"[1]; po, 800 mg, Propofol AUC0-∞, oral fospropofol disodium 800 mg, mean",577 ng·h/mL
same,Cmax,"[1]; po, 800 mg, Propofol Cmax Maximum, oral fospropofol disodium 800 mg",1350 ng/mL
same,Cmax,"[1]; po, 800 mg, Propofol Cmax Mean (SD), oral fospropofol disodium 800 mg",362 ng/mL
same,Cmax,"[1]; po, 800 mg, Propofol Cmax Minimum, oral fospropofol disodium 800 mg",127 ng/mL
same,Cmax,"[1]; po, 800 mg, Propofol Cmax, oral fospropofol disodium 800 mg, mean",362 ng/mL
same,Tmax,"[1]; po, 800 mg, Propofol Tmax, oral fospropofol disodium 800 mg, median",37.2 min
same,AUC(0-inf),"[1]; po, 1000 mg, Propofol AUC0-∞, oral fospropofol disodium 1000 mg, mean, n = 9",887 ng·h/mL
same,Cmax,"[1]; po, 1000 mg, Propofol Cmax Maximum, oral fospropofol disodium 1000 mg, n = 9",681 ng/mL
same,Cmax,"[1]; po, 1000 mg, Propofol Cmax Mean (SD), oral fospropofol disodium 1000 mg, n = 9",403 ng/mL
same,Cmax,"[1]; po, 1000 mg, Propofol Cmax Minimum, oral fospropofol disodium 1000 mg, n = 9",267 ng/mL
same,Cmax,"[1]; po, 1000 mg, Propofol Cmax, oral fospropofol disodium 1000 mg, mean, n = 9",403 ng/mL
same,Tmax,"[1]; po, 1000 mg, Propofol Tmax, oral fospropofol disodium 1000 mg, median, n = 9",45 min
same,Cmax,"[1]; po, 1200 mg, Propofol Cmax Maximum, oral fospropofol disodium 1200 mg",1190 ng/mL
same,Cmax,"[1]; po, 1200 mg, Propofol Cmax Mean (SD), oral fospropofol disodium 1200 mg",641 ng/mL
same,Cmax,"[1]; po, 1200 mg, Propofol Cmax Minimum, oral fospropofol disodium 1200 mg",193 ng/mL
same,Cmax,"[1]; po, 1600 mg, Propofol Cmax Maximum, oral fospropofol disodium 1600 mg",1170 ng/mL
same,Cmax,"[1]; po, 1600 mg, Propofol Cmax Mean (SD), oral fospropofol disodium 1600 mg",748 ng/mL
same,Cmax,"[1]; po, 1600 mg, Propofol Cmax Minimum, oral fospropofol disodium 1600 mg",229 ng/mL
same,AUC(0-inf),"[1]; po, 2000 mg, Propofol AUC0-∞, oral fospropofol disodium 2000 mg, mean",2250 ng·h/mL
same,Cmax,"[1]; po, 2000 mg, Propofol Cmax Maximum, oral fospropofol disodium 2000 mg",1620 ng/mL
same,Cmax,"[1]; po, 2000 mg, Propofol Cmax Mean (SD), oral fospropofol disodium 2000 mg",806 ng/mL
same,Cmax,"[1]; po, 2000 mg, Propofol Cmax Minimum, oral fospropofol disodium 2000 mg",200 ng/mL
same,Cmax,"[1]; po, 2000 mg, Propofol Cmax, oral fospropofol disodium 2000 mg, mean",806 ng/mL
same,Tmax,"[1]; po, 2000 mg, Propofol Tmax, oral fospropofol disodium 2000 mg, median",45 min
same,AUC(0-t),[1]; [5],103 ng·h/mL
same,half-life,[1]; [5],228 min
same,AUC(0-t),[1]; [6],276 ng·h/mL
same,half-life,[1]; [6],176 min
same,AUC(0-t),[1]; [7],551 ng·h/mL
same,half-life,[1]; [7],116 min
same,AUC(0-t),[1]; [8],846 ng·h/mL
same,half-life,[1]; [8],121 min
same,half-life,[1]; [9],177 min
same,AUC(0-t),[1]; [10],2000 ng·h/mL
same,half-life,[1]; [10],118 min
same,Propofol concentration relative to Cmax,[1]; by 4 hours after dosing,less than 25 % of Cmax
same,Propofol Cmax CV,[1]; oral fospropofol disodium 200 mg,64%
same,Propofol CL/F,[1]; [5],1889 L/h
same,Propofol Cmax CV,[1]; oral fospropofol disodium 400 mg,63%
same,Propofol CL/F,[1]; [6],1658 L/h
same,Propofol Cmax CV,[1]; oral fospropofol disodium 800 mg,99%
same,Propofol CL/F,[1]; [7],1561 L/h
same,Propofol CL/F,[1]; [8],1213 L/h
same,Propofol Cmax CV,"[1]; oral fospropofol disodium 1000 mg, n = 9",30%
same,Propofol Cmax CV,[1]; oral fospropofol disodium 1200 mg,46%
same,Propofol CL/F,"[1]; oral fospropofol disodium 1200 mg, Fasted (Cohort 5), n = 10, mean",1260 L/h
same,Propofol CL/F,"[1]; oral fospropofol disodium 1200 mg, mean",1260 L/h
same,Propofol Cmax CV,[1]; oral fospropofol disodium 1600 mg,44%
same,Propofol CL/F,[1]; [9],1182 L/h
same,Propofol Cmax CV,[1]; oral fospropofol disodium 2000 mg,51%
same,Propofol CL/F,[1]; [10],933 L/h
same,Propofol mean AUC following a high-fat meal relative to fasting,[2]; 1200 mg,approximately 40%
same,Propofol mean Cmax under fed conditions relative to fasting,[2]; 1200 mg,approximately 19%
same,Effect of high-fat meal on exposure,[2]; 1200 mg within 30 minutes after the start of a high-fat meal,significant reduction in exposure
same,Tmax,"[2]; both sexes, human, plasma, oral, 1200 mg, after a high-fat meal",120 min
same,Propofol CL/F,"[2]; oral fospropofol disodium 1200 mg, Fed (Cohort 8), n = 7/12, mean",3111 L/h
same,Propofol AUC0-6hr increase after 14 days compared with Day 1,[3]; females,over 5 fold
same,Propofol Cmax increase after 14 days compared with Day 1,[3]; females,~3 fold
same,Propofol AUC0-6hr increase after 14 days compared with Day 1,[3]; males,over 2 fold
same,Propofol Cmax increase after 14 days compared with Day 1,[3]; males,about 7 fold
same,Tmax,"[3]; Beagle, dog, plasma, po, Propofol Tmax, most groups",5 to 60 min
same,Increase of propofol Cmax and AUC0-6hr with dose,"[3]; Day 1, both sexes",close proportional
same,Increase of propofol Cmax and AUC0-6hr with dose,"[3]; Day 14, both sexes",more than close proportional
same,half-life,"[3]; female, Beagle, dog, plasma, po, females",30 to 78 min
same,half-life,"[3]; male, Beagle, dog, plasma, po, males",48 to 108 min
